This is an account of results in US20260125382A1, “COMPOUNDS FOR INHIBITING OR DEGRADING CDK2 AND/OR CDK9 AND MEDICINAL USE THEREOF” (KOREA RESEARCH INSTITUTE OF CHEMICAL TECHNOLOGY, priority 2022, published 2026).

For experiment [1], the target named is T1, CDK9 (Homo sapiens, UniProt P50750).
T1 construct: endogenous in cells; host or cells: MDA-MB-231
The experiment in a line: CDK protein degradation activity (Western blotting), CDK9. The experiment is classed as cell-based. As to conditions: MDA-MB-231 cells, 16 hours, Western blot. The essentials: (§1)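 CDK2 and CDK9 protein levels measured by Western blot with densitometry, using tubulin as loading reference. Cells were MDA-MB-231, exposed for 16 h to 100 nM, 1 μM or 10 μM compound or to DMSO.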
(In general: A western blot detects proteins with antibodies after separation by electrophoresis.)

Experiment [2] concerns the target T2, CDK2 (Homo sapiens, UniProt P24941).
T2 construct: endogenous in cells; host or cells: MDA-MB-231
Description: CDK protein degradation activity (Western blotting), CDK2. In kind it is cell-based. To be noted: MDA-MB-231 cells, 16 hours, Western blot. Put shortly:
as §1

T1 sequence (P50750 whole entry): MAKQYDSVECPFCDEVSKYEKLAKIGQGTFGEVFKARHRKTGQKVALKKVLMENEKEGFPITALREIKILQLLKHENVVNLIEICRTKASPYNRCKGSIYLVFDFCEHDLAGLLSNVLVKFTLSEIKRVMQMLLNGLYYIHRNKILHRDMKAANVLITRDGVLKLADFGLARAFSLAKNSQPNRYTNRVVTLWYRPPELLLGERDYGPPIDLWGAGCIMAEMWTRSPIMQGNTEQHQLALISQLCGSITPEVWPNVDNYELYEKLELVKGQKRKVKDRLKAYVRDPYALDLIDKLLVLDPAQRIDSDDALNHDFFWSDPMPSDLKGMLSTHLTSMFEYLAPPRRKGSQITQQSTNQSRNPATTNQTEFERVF

On to `O=C1CC[C@H](N2C(=O)c3ccc(N4CCC5(CC4)CC(N4CCN(c6ccc(Nc7ncnc8c7ncn8[C@H]7C[C@@H](NC(=O)Cc8ccccc8)C7)cc6)CC4)C5)cc3C2=O)C(=O)N1` [Compound 210, N-((1s,3s)-3-(6-((4-(4-(7-(2-(2,6-dioxopiperidin-3-yl)-1,3-dioxoisoindolin-5-yl)-7-azaspiro[3.5]nonan-2-yl)piperazin-1-yl)phenyl)amino)-9H-purin-9-yl)cyclobutyl)-2-phenylacetamide], for which, in experiment [1], the “Enzyme degradation CDK9 (% remaining) @ 0.1 μM” value is on record as 10%, the “Enzyme degradation CDK9 (% remaining) @ 1 μM” value worked out at 0% and the “Enzyme degradation CDK9 (% remaining) @ 10 μM” value was determined as 0%. Besides, in experiment [2], the “Enzyme degradation CDK2 (% remaining) @ 0.1 μM” value is listed as 30/30/30%, the “Enzyme degradation CDK2 (% remaining) @ 1 μM” value is 30/30/30% and the “Enzyme degradation CDK2 (% remaining) @ 10 μM” value is on record as 30/30/30%.

For `O=C1CC[C@H](N2C(=O)c3cccc(NCC(=O)N4CCC(CN5CCC(CNc6ncnc7c6ncn7[C@H]6C[C@@H](NC(=O)c7c(Cl)cccc7Cl)C6)CC5)CC4)c3C2=O)C(=O)N1` [Compound 170, 2,6-dichloro-N-((1s,3s)-3-(6-(((1-((1-((2-(2,6-dioxopiperidin-3-yl)-1,3-dioxoisoindolin-4-yl)glycyl)piperidin-4-yl)methyl)piperidin-4-yl)methyl)amino)-9H-purin-9-yl)cyclobutyl)benzamide], in experiment [1], the “Enzyme degradation CDK9 (% remaining) @ 0.1 μM” value is recorded as 10%, the “Enzyme degradation CDK9 (% remaining) @ 1 μM” value was 0% and the “Enzyme degradation CDK9 (% remaining) @ 10 μM” value was 10%. In experiment [2], the “Enzyme degradation CDK2 (% remaining) @ 0.1 μM” value came to 0%, the “Enzyme degradation CDK2 (% remaining) @ 1 μM” value came to 10% and the “Enzyme degradation CDK2 (% remaining) @ 10 μM” value is 20%.

As for `O=C1CC[C@H](N2C(=O)c3ccc(NCC(=O)N4CCC(CC(=O)N5CCN(c6ccc(Nc7ncnc8c7ncn8C7CC(NC(=O)Cc8ccccc8)C7)cc6)CC5)CC4)cc3C2=O)C(=O)N1` (stereo partly drawn) [Compound 213, N-((1s,3s)-3-(6-((4-(4-(2-(1-((2-(2,6-dioxopiperidin-3-yl)-1,3-dioxoisoindolin-5-yl)glycyl)piperidin-4-yl)acetyl)piperazin-1-yl)phenyl)amino)-9H-purin-9-yl)cyclobutyl)-2-phenylacetamide], in experiment [1], the “Enzyme degradation CDK9 (% remaining) @ 0.1 μM” value amounted to 70%, the “Enzyme degradation CDK9 (% remaining) @ 1 μM” value is given as 30% and the “Enzyme degradation CDK9 (% remaining) @ 10 μM” value was determined as 10%. Moreover, in experiment [2], the “Enzyme degradation CDK2 (% remaining) @ 0.1 μM” value is given as 50%, the “Enzyme degradation CDK2 (% remaining) @ 1 μM” value was determined as 70% and the “Enzyme degradation CDK2 (% remaining) @ 10 μM” value was 50%.

Consider `O=C1CC[C@H](N2C(=O)c3ccc(N4CCC(C(=O)N5CCN(CCC6CCN(c7ccc(Nc8ncnc9c8ncn9[C@H]8C[C@@H](NC(=O)Cc9ccccc9)C8)cc7)CC6)CC5)CC4)cc3C2=O)C(=O)N1` [Compound 363, N-((1s,3s)-3-(6-((4-(4-(2-(4-(1-(2-(2,6-dioxopiperidin-3-yl)-1,3-dioxoisoindolin-5-yl)piperidin-4-carbonyl)piperazin-1-yl)ethyl)piperidin-1-yl)phenyl)amino)-9H-purin-9-yl)cyclobutyl)-2-phenylacetamide], for which, in experiment [1], the “Enzyme degradation CDK9 (% remaining) @ 0.1 μM” value was determined as 40%, the “Enzyme degradation CDK9 (% remaining) @ 1 μM” value is 0% and the “Enzyme degradation CDK9 (% remaining) @ 10 μM” value is 0%. In experiment [2], the “Enzyme degradation CDK2 (% remaining) @ 0.1 μM” value came out at 100%, the “Enzyme degradation CDK2 (% remaining) @ 1 μM” value was determined as 50% and the “Enzyme degradation CDK2 (% remaining) @ 10 μM” value was determined as 30%.

`O=C1CC[C@H](N2C(=O)c3cc(F)c(N4CCN(C5CC6(CCN(c7ccc(Nc8ncnc9c8ncn9[C@H]8C[C@@H](NC(=O)Cc9ccccc9)C8)cc7)CC6)C5)CC4)cc3C2=O)C(=O)N1` [Compound 336, N-((1s,3s)-3-(6-((4-(2-(4-(2-(2,6-dioxopiperidin-3-yl)-6-fluoro-1,3-dioxoisoindolin-5-yl)piperazin-1-yl)-7-azaspiro[3.5]nonan-7-yl)phenyl)amino)-9H-purin-9-yl)cyclobutyl)-2-phenylacetamide]: in experiment [1], the “Enzyme degradation CDK9 (% remaining) @ 0.1 μM” value is given as 100%, the “Enzyme degradation CDK9 (% remaining) @ 1 μM” value is 0% and the “Enzyme degradation CDK9 (% remaining) @ 10 μM” value was 0%. Besides, in experiment [2], the “Enzyme degradation CDK2 (% remaining) @ 0.1 μM” value was 100%, the “Enzyme degradation CDK2 (% remaining) @ 1 μM” value is given as 0% and the “Enzyme degradation CDK2 (% remaining) @ 10 μM” value worked out at 0%.

As to `Cc1cccc(C(=O)N[C@H]2C[C@@H](n3cnc4c(NCc5ccc(OCCCN6CCN(c7ccc8c(c7)C(=O)N(C7CCC(=O)NC7=O)C8=O)CC6)cc5)ncnc43)C2)n1` (stereo partly drawn) [Compound 116, N-((1s,3s)-3-(6-((4-(3-(4-(2-(2,6-dioxopiperidin-3-yl)-1,3-dioxoisoindolin-5-yl)piperazin-1-yl)propoxy)benzyl)amino)-9H-purin-9-yl)cyclobutyl)-6-methylpicolinamide], in experiment [1], the “Enzyme degradation CDK9 (% remaining) @ 0.1 μM” value is given as 10%, the “Enzyme degradation CDK9 (% remaining) @ 1 μM” value is 0% and the “Enzyme degradation CDK9 (% remaining) @ 10 μM” value was determined as 0%. In experiment [2], the “Enzyme degradation CDK2 (% remaining) @ 0.1 μM” value was 30%, the “Enzyme degradation CDK2 (% remaining) @ 1 μM” value is given as 40% and the “Enzyme degradation CDK2 (% remaining) @ 10 μM” value is reported as 50%.

`O=C1CC[C@@H](c2ccc(OCC(=O)N3CCC(CN4CCN(c5ccc(Nc6ncnc7c6ncn7C6CC(NC(=O)Cc7ccccc7)C6)cc5)CC4)CC3)cc2)C(=O)N1` (stereo partly drawn) [Compound 202, N-((1s,3s)-3-(6-((4-(4-((1-(2-(4-(2,6-dioxopiperidin-3-yl)phenoxy)acetyl)piperidin-4-yl)methyl)piperazin-1-yl)phenyl)amino)-9H-purin-9-yl)cyclobutyl)-2-phenylacetamide]: in experiment [1], the “Enzyme degradation CDK9 (% remaining) @ 0.1 μM” value turned out to be 10%, the “Enzyme degradation CDK9 (% remaining) @ 1 μM” value is recorded as 0% and the “Enzyme degradation CDK9 (% remaining) @ 10 μM” value came to 0%. In addition, in experiment [2], the “Enzyme degradation CDK2 (% remaining) @ 0.1 μM” value came to 30%, the “Enzyme degradation CDK2 (% remaining) @ 1 μM” value is given as 20% and the “Enzyme degradation CDK2 (% remaining) @ 10 μM” value was found to be 40%.

Consider “2,6-dichloro-N-((1s,3s)-3-(6-((4-(4-((4-(1-(2-(2,6-dioxopiperidin-3-yl)-1,3-dioxoisoindolin-5-yl)azetidin-3-carbonyl)piperazin-1-yl)methyl)piperidin-1-yl)phenyl)amino)-9H-purin-9-yl)cyclobutyl)benzamide [Compound 473]”, for which, in experiment [1], the “Enzyme degradation CDK9 (% remaining) @ 0.1 μM” value is recorded as 10/10/10%, the “Enzyme degradation CDK9 (% remaining) @ 1 μM” value is recorded as 10/10/10% and the “Enzyme degradation CDK9 (% remaining) @ 10 μM” value is on record as 10/10/10%. For the same compound, in experiment [2], the “Enzyme degradation CDK2 (% remaining) @ 0.1 μM” value was 20/20/20%, the “Enzyme degradation CDK2 (% remaining) @ 1 μM” value is 20/20/20% and the “Enzyme degradation CDK2 (% remaining) @ 10 μM” value was 20/20/20%.

Turning to `O=C1CC[C@H](N2C(=O)c3ccc(NCC(=O)N4CCC(CCCN5CCN(c6ccc(Nc7ncnc8c7ncn8[C@H]7C[C@@H](NC(=O)Cc8ccccc8)C7)cc6)CC5)CC4)cc3C2=O)C(=O)N1` (racemic) [Compound 255, N-((1s,3s)-3-(6-((4-(4-(3-(1-((2-(2,6-dioxopiperidin-3-yl)-1,3-dioxoisoindolin-5-yl)glycyl)piperidin-4-yl)propyl)piperazin-1-yl)phenyl)amino)-9H-purin-9-yl)cyclobutyl)-2-phenylacetamide], in experiment [1], the “Enzyme degradation CDK9 (% remaining) @ 0.1 μM” value was 0/0/0%, the “Enzyme degradation CDK9 (% remaining) @ 1 μM” value is 0/0/0% and the “Enzyme degradation CDK9 (% remaining) @ 10 μM” value was 0/0/0%. Further, in experiment [2], the “Enzyme degradation CDK2 (% remaining) @ 0.1 μM” value is 30/30/30%, the “Enzyme degradation CDK2 (% remaining) @ 1 μM” value is given as 30/30/30% and the “Enzyme degradation CDK2 (% remaining) @ 10 μM” value was 30/30/30%.

Turning to `O=C(COc1ccc(C2CCC(=O)NC2=O)cc1)NC[C@H]1CC[C@H](CN2CCN(c3ccc(Nc4ncnc5c4ncn5[C@H]4C[C@@H](NC(=O)Cc5ccccc5)C4)cc3)CC2)CC1` (stereo partly drawn) [Compound 217, 2-(4-(2,6-dioxopiperidin-3-yl)phenoxy)-N-(((1r,4r)-4-((4-(4-((9-((1s,3s)-3-(2-phenylacetamido)cyclobutyl)-9H-purin-6-yl)amino)phenyl)piperazin-1-yl)methyl)cyclohexyl)methyl)acetamide], in experiment [1], the “Enzyme degradation CDK9 (% remaining) @ 0.1 μM” value is 0/0/0%, the “Enzyme degradation CDK9 (% remaining) @ 1 μM” value is 0/0/0% and the “Enzyme degradation CDK9 (% remaining) @ 10 μM” value is reported as 0/0/0%. In experiment [2], the “Enzyme degradation CDK2 (% remaining) @ 0.1 μM” value is listed as 80%, the “Enzyme degradation CDK2 (% remaining) @ 1 μM” value is recorded as 100% and the “Enzyme degradation CDK2 (% remaining) @ 10 μM” value stood at 50%.

For `O=C1CC[C@H](N2C(=O)C=C(N3CCC(C(=O)N4CCC(CN5CCN(c6ccc(Nc7ncnc8c7ncn8[C@H]7C[C@@H](NC(=O)Cc8ccccc8)C7)cc6)CC5)CC4)CC3)C2=O)C(=O)N1` [Compound 189, N-((1s,3s)-3-(6-((4-(4-((1-(1-(1-(2,6-dioxopiperidin-3-yl)-2,5-dioxo-2,5-dihydro-1H-pyrrol-3-yl)piperidin-4-carbonyl)piperidin-4-yl)methyl)piperazin-1-yl)phenyl)amino)-9H-purin-9-yl)cyclobutyl)-2-phenylacetamide], in experiment [1], the “Enzyme degradation CDK9 (% remaining) @ 0.1 μM” value is given as 0/0/0%, the “Enzyme degradation CDK9 (% remaining) @ 1 μM” value is 0/0/0% and the “Enzyme degradation CDK9 (% remaining) @ 10 μM” value is reported as 0/0/0%. Moreover, in experiment [2], the “Enzyme degradation CDK2 (% remaining) @ 0.1 μM” value is on record as 30%, the “Enzyme degradation CDK2 (% remaining) @ 1 μM” value was found to be 20% and the “Enzyme degradation CDK2 (% remaining) @ 10 μM” value is reported as 40%.

As for `Cc1cccc(C(=O)N[C@H]2C[C@@H](n3cnc4c(NCc5cccc(OCCCN6CCN(C(=O)CNc7cccc8c7C(=O)N([C@H]7CCC(=O)NC7=O)C8=O)CC6)c5)ncnc43)C2)n1` [Compound 103, N-((1s,3s)-3-(6-((3-(3-(4-((2-(2,6-dioxopiperidin-3-yl)-1,3-dioxoisoindolin-4-yl)glycyl)piperazin-1-yl)propoxy)benzyl)amino)-9H-purin-9-yl)cyclobutyl)-6-methylpicolinamide], in experiment [1], the “Enzyme degradation CDK9 (% remaining) @ 0.1 μM” value was 30%, the “Enzyme degradation CDK9 (% remaining) @ 1 μM” value is recorded as 10% and the “Enzyme degradation CDK9 (% remaining) @ 10 μM” value was found to be 10%. Also, in experiment [2], the “Enzyme degradation CDK2 (% remaining) @ 0.1 μM” value turned out to be 40%, the “Enzyme degradation CDK2 (% remaining) @ 1 μM” value is 40% and the “Enzyme degradation CDK2 (% remaining) @ 10 μM” value is listed as 60%.
